# Results published in US20110098359A1, “Compositions and Methods for Treatment of Glaucoma” (Stellenbosch University, priority 2007, published 2011).
# Assays:
# [1] = Permeability experiments in flow-through diffusion cells across rabbit corneas; format: in vitro ADME; conditions: for steady-state flux values: frozen/thawed rabbit cornea, 20° C.
# Source text: (§1) Harvested donor comeas, which were deemed unsuitable for transplantation because of infections such as hepatitis B and human immunodeficiency virus (HIV), were obtained from The Eye Bank Foundation of South Africa Observatory from 6 patients (mean age±SD, 35±12 years; range, 24-65 years). In addition, rabbit corneas were obtained from 6 freshly slaughtered rabbits (Country Lane Nursery Farm, Kraaifontein, Cape Town, South Africa). Excised corneas were immediately placed in McCarey-Kaufman solution and transported to a laboratory within 6 hours. The McCarey-Kaufman solution consisted of a stock solution of Medium 199 (Sigma Chemical Company, St. Louis, Mo., U.S.A.) to which sodium bicarbonate, as well as 25 mM of HEPES and 5% dextran, was added before using the solution for the transport of corneal specimens. On arrival in the laboratory, the corneas were hemisected. One half was used immediately, and the other half was snap-frozen in liquid nitrogen and stored at −85° C. for no longer than 6 months before use. At least one piece of corneal tissue from each specimen was placed in formalin and retained for histologic examination.
# (§2) Before each permeability experiment, tissue specimens were thawed at room temperature in phosphate buffered saline (PBS, pH 7.4). […]
# (§3) Following equilibration, the PBS was removed from the donor compartment and replaced with 1.0 mL of PBS, containing 1 mg/mL (0.1%) paracetamol in PBS at pH 7.4 (w/v) or else 1 mg/mL (0.1%) paracetamol in a commercially available artificial tear gel i.e. Teargel® liquid gel (Restan Laboratories, Bryanston, South Africa). […] Samples were analyzed at the Division of Pharmacology, Faculty of Health Sciences, Stellenbosch University by HPLC with UV detection. The collected fractions were analyzed directly after completion of the respective experiment for their paracetamol content.
# (§4) Flux (J) values across membranes were calculated by means of the relationship
# (§5) where Q indicates quantity of substance crossing membrane (in ng); A, membrane area exposed (in cm^2); and t, time of exposure (in minutes). […]
# [2] = Permeability experiments in flow-through diffusion cells across human corneas; format: in vitro ADME; conditions: for steady-state flux values: frozen/thawed human cornea, 20° C.
# Source text: as §1, §2, §3, §4, §5
# [3] = Corneal penetration experiments (general statement); format: in vitro ADME; conditions: more than 2000 corneal penetration experiments
# Experimental: An ophthalmic solution was made up as follows: 1 mg/ml (0.1%) solution of paracetamol in phosphate buffered saline (pH=7.4) was used for half of the experiments and 1 mg/ml (0.1%) solution of paracetamol in phosphate […]. […] These tests were conducted in the following manner.
# [4] = Initial trials: oral paracetamol in patients with glaucoma, intra-ocular pressure reduction; format: in vivo, human; conditions: 1000 mg orally 4 to 6 hourly, after 24 to 48 hours
# Experimental: In initial trials, 1000 mg of paracetamol was administered orally 4 to 6 hourly to several patients with glaucoma. In all cases the intra-ocular pressure reduction was in the order of 30% after 24 to 48 hours. This compares well with the pressure lowering effect of currently available commercial preparations.
# [5] = 0.1% paracetamol in Teargel (TG)
structure (smiles),measurement,setting,value
CC(=O)Nc1ccc(O)cc1 [paracetamol],steady-state flux values,[1]; 0.1% paracetamol in PBS pH 7.4,774±30 ng·cm^−2·min^−1
same,steady-state flux values,[1]; [5],860±39 ng·cm^−2·min^−1
same,effect of Teargel on the diffusion rate of paracetamol,"[1]; across rabbit corneas, Teargel vs PBS, 0.1%",increase the diffusion rate
same,steady-state flux values,[2]; 0.1% paracetamol in PBS pH 7.4,870±76 ng·cm^−2·min^−1
same,steady-state flux values,[2]; [5],860±33 ng·cm^−2·min^−1
same,effect of Teargel as a soluent on the diffusion rate of paracetamol,"[2]; across human corneas, Teargel vs PBS, 0.1%",did not affect the diffusion rate
same,corneal penetration,[3],does penetrate the cornea well
same,intra-ocular pressure reduction,[4],~30%
